Measurements taken from patent publication US20110129548A1, “Immunopotentiating Compositions Comprising Beta-1, 3/1, 6-D-Glucan and Uses Thereof” (BioAgra, LLC, priority 2006, published 2011).

Columns and labels:
[1] = tested on: macrophage cell line RAW264 cells; assay: Hydrogen peroxide production by RAW264 macrophages; type: cell-based, murine; details: 1 h; for Fluorescence: control 229.00 ± 4.54
Method: To determine hydrogen peroxide production, macrophage cell line RAW264 cells were plated into 96 well tissue culture plates and cultured until confluent in phenol red-free alpha-minimum essential medium, supplemented with 10% fetal bovine serum. Once confluence was reached, the media was removed, the cells were washed, and substrate and test substances were added. To insure cell number uniformity at confluence, cell numbers were determined in 8 wells; if the number of cells differed by more than 10% the plate was not used. Following an incubation period of exactly 1h the reaction was stopped and resulting fluorescence measured with an ELISA-reader at λmax, excitation=312 nm, λmax, emission=420 nm. Zymosan, the residue from a hot alcoholic extraction of yeast, and curdlan, a linear beta-1,3-D-glucan, were used as positive controls.

[2] = tested on: blood cells (WBC, RBC, MON, PMN); assay: Effect of Vitamin D plus beta-1,3/1,6-D-glucan on blood cells (differential cell count); type: in vivo; details: rabbits, capsules for 9 weeks
Method: To determine the effect of Vitamin D plus beta-1,3/1,6-D-glucan (AGRASTIM®) on the immunocompetence of an animal, rabbits (10 per group) were given capsules of equal weight comprising 10 mg of beta-1,3/1,6-D-glucan (AGRASTIM®), 10 mg of beta-1,3/1,6-D-glucan (AGRASTIM®) plus 50 IU of Vitamin D, or 50 IU Vitamin D for 9 weeks. At the end of 9 weeks the number of white blood cells (WBCs), red blood cells (RBCs), mononuclear cells (MONs), and polymorphonuclear cells (PMNs) were determined by differential cell count.

[3] = percent with the control set to 100

Substance: CURDLAN
- H2O2-Release ([1]; dose 10 μg/assay): 0.76 nmol
- Fluorescence ([1]; dose 10 μg/assay): 254.00 ± 1.02 arbitrary units
- H2O2-Release ([1]; dose 50 μg/assay): 1.06 nmol
- Fluorescence ([1]; dose 50 μg/assay): 345.00 ± 6.48 arbitrary units

Substance: Vitamin D
- increase of PMNs [2]: 29%
- increase of WBCs above control [2]: no effect
- increase of the number of RBCs [2]: neither beta-1,3/1,6-D-glucan alone nor Vitamin D had significant effects
- MON [2, 3]: 83%
- PMN [2, 3]: 129%
- RBC [2, 3]: 84%
- WBC [2, 3]: 100%
